Measurements reported in PubChem BioAssay AID624361 (Broad Institute, 2012).
Inconclusive results are not listed. Calls of active or inactive are those of the source. The rule behind the calls is not given here.

test: inhibitors of LMP1-driven NF-kB reporter, dose response, cell-based, EBV LMP1, luciferase, dry powder, set 2 (AID 624361); settings: LMP1-induced NF-kappaB luciferase reporter cells, luminescence; at 30 µM (top of the series)

**Q.** Which activity change, negative = inhibition does the source give for C[C@H](NC(=O)C[C@@H]1C=C[C@H](NC(=O)Cc2ccccn2)[C@H](CO)O1)c1ccccc1 here?
**A.** Its activity change, negative = inhibition is -0.706% (inactive).

same assay, conditions: LMP1-induced NF-kappaB luciferase reporter cells, luminescence; at 35 µM (top of the series)

**Q.** For C[C@H](NC(=O)C[C@@H]1C=C[C@@H](NC(=O)Cc2ccccn2)[C@H](CO)O1)c1ccccc1, which activity change, negative = inhibition is on record?
**A.** The activity change, negative = inhibition was -0.475% (inactive).

**Q.** With C[C@@H]1CN([C@@H](C)CO)C(=O)c2c(c3ccccc3n2C)-c2ccccc2CO[C@@H]1CN(C)C(=O)Nc1ccc(F)cc1 as the molecule, how does the activity change, negative = inhibition read?
**A.** The activity change, negative = inhibition was -5.35% (inactive).

**Q.** Which activity change, negative = inhibition does the source give for O=C(Cc1ccccn1)NCC[C@@H]1CC[C@H](NC(=O)Nc2ccc(Cl)cc2)[C@H](CO)O1 here?
**A.** The activity change, negative = inhibition was -5.88% (inactive).

**Q.** Which activity change, negative = inhibition does the source give for C[C@@H](NC(=O)C[C@@H]1C=C[C@@H](NC(=O)Cc2ccccn2)[C@@H](CO)O1)c1ccccc1 here?
**A.** The activity change, negative = inhibition was 9.33% (inactive).

**Q.** Which activity change, negative = inhibition does the source give for O=C(C[C@@H]1C[C@@H]2c3cc(NC(=O)c4cccnc4)ccc3O[C@@H]2[C@H](CO)O1)NCC(F)(F)F here?
**A.** The activity change, negative = inhibition was -2.29% (inactive).

**Q.** For COc1ccccc1C(=O)Nc1ccc2c(c1)C(=O)N(C)[C@@H]1CC[C@H](CC(=O)NCCc3ccncc3)O[C@H]1CO2, which activity change, negative = inhibition is on record?
**A.** Its activity change, negative = inhibition is -6.13% (inactive).

**Q.** Which activity change, negative = inhibition does the source give for O=C(C[C@H]1C[C@@H]2c3cc(NS(=O)(=O)c4ccc(F)cc4)ccc3O[C@@H]2[C@H](CO)O1)NC1CCCCC1 here?
**A.** The activity change, negative = inhibition was -1.53% (inactive).

**Q.** With C[C@H](NC(=O)C[C@H]1C=C[C@@H](NC(=O)Cc2ccccn2)[C@@H](CO)O1)c1ccccc1 as the molecule, how does the activity change, negative = inhibition read?
**A.** The activity change, negative = inhibition was 11% (inactive).

**Q.** With C[C@H](NC(=O)C[C@H]1C[C@@H]2c3cc(NC(=O)c4cccnc4)ccc3O[C@@H]2[C@@H](CO)O1)c1ccccc1 as the molecule, how does the activity change, negative = inhibition read?
**A.** The activity change, negative = inhibition was 0.067% (inactive).

**Q.** Which activity change, negative = inhibition does the source give for CO[C@@H]1CN(C)C(=O)c2ccc(NC(C)=O)cc2OC[C@@H](C)N(Cc2ccccc2F)C[C@H]1C here?
**A.** The activity change, negative = inhibition was 0.476% (inactive).

**Q.** With CO[C@H]1CN(C)C(=O)c2ccc(NC(=O)C3CC3)cc2OC[C@H](C)N(C(=O)c2ccccn2)C[C@H]1C as the molecule, how does the activity change, negative = inhibition read?
**A.** The activity change, negative = inhibition was -14% (inactive).

**Q.** With O=C(Cc1ccccn1)NCC[C@H]1CC[C@@H](NC(=O)Nc2ccc(Cl)cc2)[C@H](CO)O1 as the molecule, how does the activity change, negative = inhibition read?
**A.** Its activity change, negative = inhibition is -2.38% (inactive).

**Q.** With COc1ccccc1CNC(=O)C[C@H]1C[C@@H]2c3cc(NC(=O)CN(C)C)ccc3O[C@@H]2[C@@H](CO)O1 as the molecule, how does the activity change, negative = inhibition read?
**A.** Its activity change, negative = inhibition is 0.74% (inactive).

**Q.** With CS(=O)(=O)Nc1ccc2c(c1)[C@H]1C[C@@H](CC(=O)NCC3CC3)O[C@@H](CO)[C@H]1O2 as the molecule, how does the activity change, negative = inhibition read?
**A.** The activity change, negative = inhibition was 8.63% (inactive).

**Q.** For C[C@H]1CN([C@@H](C)CO)C(=O)Cc2cc(NC(=O)Cc3ccccc3)ccc2O[C@H]1CN(C)Cc1ccc(C(F)(F)F)cc1, which activity change, negative = inhibition is on record?
**A.** Its activity change, negative = inhibition is 11.5% (inactive).

**Q.** For Cc1noc(C)c1S(=O)(=O)Nc1ccc2c(c1)C(=O)N([C@H](C)CO)C[C@H](C)[C@@H](CN(C)Cc1ccc(C(F)(F)F)cc1)OCCCC[C@@H](C)O2, which activity change, negative = inhibition is on record?
**A.** Its activity change, negative = inhibition is -11.1% (inactive).

**Q.** Which activity change, negative = inhibition does the source give for C/C=C/c1cccc(-c2nc(C(=O)Nc3nccs3)cc3c2[C@@H](CCO)N(C(=O)NC(C)C)C3)c1 here?
**A.** Its activity change, negative = inhibition is -17% (inactive).

**Q.** With C[C@@H]1CN([C@H](C)CO)C(=O)c2c(c3ccccc3n2C)-c2ccccc2CO[C@@H]1CN(C)C(=O)Nc1ccc(F)cc1 as the molecule, how does the activity change, negative = inhibition read?
**A.** Its activity change, negative = inhibition is -8.91% (inactive).

**Q.** For C[C@H](NC(=O)C[C@H]1C=C[C@H](NC(=O)Cc2ccccn2)[C@H](CO)O1)c1ccccc1, which activity change, negative = inhibition is on record?
**A.** The activity change, negative = inhibition was 5.47% (inactive).

**Q.** For C[C@@H](NC(=O)C[C@H]1C=C[C@@H](NC(=O)Cc2ccccn2)[C@@H](CO)O1)c1ccccc1, which activity change, negative = inhibition is on record?
**A.** Its activity change, negative = inhibition is 0.795% (inactive).

**Q.** For C[C@H](NC(=O)C[C@@H]1C=C[C@H](NC(=O)Cc2ccccn2)[C@@H](CO)O1)c1ccccc1, which activity change, negative = inhibition is on record?
**A.** Its activity change, negative = inhibition is -0.999% (inactive).

**Q.** For COC(=O)C[C@@H]1C[C@@H]2c3cc(NC(=O)CN(C)C)ccc3O[C@@H]2[C@@H](CO)O1, which activity change, negative = inhibition is on record?
**A.** The activity change, negative = inhibition was -0.64% (inactive).

**Q.** Which activity change, negative = inhibition does the source give for CCC(=O)N1Cc2cc(C(=O)Nc3nccs3)nc(-c3cccc(-c4ccccc4OC)c3)c2[C@H]1CCO here?
**A.** The activity change, negative = inhibition was -7.28% (inactive).

**Q.** For C[C@@H](NC(=O)C[C@H]1C[C@@H]2c3cc(NC(=O)c4cccnc4)ccc3O[C@@H]2[C@@H](CO)O1)c1ccccc1, which activity change, negative = inhibition is on record?
**A.** Its activity change, negative = inhibition is -0.38% (inactive).

**Q.** Which activity change, negative = inhibition does the source give for O=C(Cc1ccccn1)NCC[C@H]1CC[C@H](NC(=O)Nc2ccc(Cl)cc2)[C@H](CO)O1 here?
**A.** The activity change, negative = inhibition was -1.01% (inactive).

**Q.** For C[C@@H]1CN([C@H](C)CO)C(=O)Cc2cc(NC(=O)Cc3ccccc3)ccc2O[C@H]1CN(C)Cc1ccc(C(F)(F)F)cc1, which activity change, negative = inhibition is on record?
**A.** The activity change, negative = inhibition was -9.16% (inactive).

**Q.** Which activity change, negative = inhibition does the source give for O=C(Cc1ccccn1)NCC[C@@H]1CC[C@H](NC(=O)Nc2ccc(Cl)cc2)[C@@H](CO)O1 here?
**A.** The activity change, negative = inhibition was -3.42% (inactive).

**Q.** Which activity change, negative = inhibition does the source give for Cc1noc(C)c1S(=O)(=O)Nc1ccc2c(c1)C(=O)N([C@H](C)CO)C[C@@H](C)[C@@H](CN(C)Cc1ccc(C(F)(F)F)cc1)OCCCC[C@@H](C)O2 here?
**A.** The activity change, negative = inhibition was 1.95% (inactive).

**Q.** For O=C(C[C@@H]1C[C@H]2c3cc(NS(=O)(=O)c4ccc(F)cc4)ccc3O[C@H]2[C@@H](CO)O1)NC1CCCCC1, which activity change, negative = inhibition is on record?
**A.** The activity change, negative = inhibition was -2.44% (inactive).

**Q.** For C[C@H](CO)N1C[C@H](C)[C@H](CN(C)Cc2ccc(Oc3ccccc3)cc2)Oc2ccc(NC(=O)CCCN(C)C)cc2C1=O, which activity change, negative = inhibition is on record?
**A.** Its activity change, negative = inhibition is 16.2% (inactive).

**Q.** For C[C@@H]1CN([C@H](C)CO)C(=O)c2c(c3ccccc3n2C)-c2ccccc2CO[C@H]1CN(C)C(=O)Nc1ccc(F)cc1, which activity change, negative = inhibition is on record?
**A.** Its activity change, negative = inhibition is -3.16% (inactive).

**Q.** Which activity change, negative = inhibition does the source give for CC(C)(C)[S@@](=O)N1Cc2cc(C(=O)NCCc3ccncc3)nc(-c3cccc(-c4cccnc4)c3)c2[C@H]1CCO here?
**A.** Its activity change, negative = inhibition is -15% (inactive).
